Test systems include CAKI-1 renal; COLO 205 colon; HOP-62 NSCLC; HOP-92 NSCLC; MALME-3M melanoma; NCI/ADR-RES ovarian; OVCAR-4 ovarian; OVCAR-8 ovarian; PC-3 prostate; SF-268 CNS; SK-MEL-28 melanoma; SK-MEL-5 melanoma; SNB-19 CNS; SNB-75 CNS; SR leukemia; T-47D breast.
Common to all, as to assay: NCI anticancer screen, dose series, 48 h

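96-well plates; 48 h exposure; 5 concentrations. Endpoints by linear interpolation between flanking doses. Not reached: highest tested concentration assigned. TGI: concentration producing complete growth inhibition.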

For the compound `C[C@@]12C[C@@H](c3ccccc3O1)N1CCCSC1=N2`, the TGI in the test on CAKI-1 renal, in the test with COLO 205 colon, with HOP-62 NSCLC, in the test on HOP-92 NSCLC, in the test with MALME-3M melanoma and with NCI/ADR-RES ovarian was greater than 100 µM throughout. Further, the TGI in the test with OVCAR-4 ovarian, with OVCAR-8 ovarian, with PC-3 prostate, with SF-268 CNS, in the test on SK-MEL-28 melanoma and in the test on SK-MEL-5 melanoma was greater than 100 µM in each case. Besides, the TGI in the test on SNB-19 CNS, in the test on SNB-75 CNS, with SR leukemia and in the test on T-47D breast was greater than 100 µM throughout.

Turning to `CC1=C(C(=O)NNC(=O)c2ccccc2O)CC(C(=O)NNC(=O)c2ccccc2O)=C(C)N1`, the TGI is greater than 100 µM in the test on CAKI-1 renal; greater than 86.8 µM in the test on COLO 205 colon; greater than 86.2 µM in the test on HOP-62 NSCLC; greater than 100 µM in the test on HOP-92 NSCLC; greater than 100 µM with MALME-3M melanoma; greater than 51.3 µM in the test with NCI/ADR-RES ovarian. Besides, the TGI in the test with OVCAR-4 ovarian was greater than 100 µM; with OVCAR-8 ovarian, greater than 65.3 µM; with PC-3 prostate it was greater than 100 µM; in the test with SF-268 CNS, greater than 100 µM; with SK-MEL-28 melanoma it was greater than 100 µM; in the test on SK-MEL-5 melanoma it was greater than 100 µM. Further, the TGI in the test on SNB-19 CNS is greater than 100 µM; in the test on SNB-75 CNS, greater than 100 µM; in the test on SR leukemia, greater than 29.2 µM; with T-47D breast, greater than 32.6 µM.

For the compound `O=C(N/N=C\c1ccc(Cl)cc1)Nc1cccc2ccccc12`, the TGI is 4.76 µM in the test with CAKI-1 renal; greater than 100 µM in the test with COLO 205 colon; 5.25 µM in the test on HOP-62 NSCLC; 21.2 µM in the test with HOP-92 NSCLC; greater than 24.4 µM in the test with MALME-3M melanoma; greater than 100 µM in the test with NCI/ADR-RES ovarian. For the same compound, the TGI is 6.84 µM with OVCAR-4 ovarian; greater than 40.8 µM in the test on OVCAR-8 ovarian; greater than 100 µM in the test with PC-3 prostate; greater than 26.1 µM in the test on SF-268 CNS; greater than 100 µM in the test on SK-MEL-28 melanoma; greater than 37.4 µM with SK-MEL-5 melanoma. The TGI in the test with SNB-19 CNS was 5.64 µM; in the test with SNB-75 CNS it was 5.62 µM; in the test on SR leukemia, 9.11 µM; in the test on T-47D breast, greater than 100 µM.

As to `CCOC(=O)c1c(Br)c(-c2ccc([N+](=O)[O-])cc2)c(Br)n1C`, the TGI in the test with CAKI-1 renal, with COLO 205 colon, in the test on HOP-62 NSCLC, with HOP-92 NSCLC, in the test with MALME-3M melanoma and with NCI/ADR-RES ovarian was greater than 10 µM in each case. The TGI with OVCAR-4 ovarian, in the test on OVCAR-8 ovarian, in the test with PC-3 prostate, in the test with SF-268 CNS, with SK-MEL-28 melanoma and in the test on SK-MEL-5 melanoma was greater than 10 µM each time. The TGI with SNB-19 CNS, in the test on SNB-75 CNS, in the test with SR leukemia and with T-47D breast was greater than 10 µM each time.

Turning to `COc1ccc2nc3c([N+](=O)[O-])ccc4c3c(c2c1)N=CN4CCN(C)C`, the TGI with CAKI-1 renal was found to be 5.71 µM; in the test with COLO 205 colon, 10.1 µM; in the test on HOP-62 NSCLC, 15.3 µM; with HOP-92 NSCLC, 26.1 µM; in the test on MALME-3M melanoma it was 14.5 µM; with NCI/ADR-RES ovarian, 22 µM. In addition, the TGI in the test on OVCAR-4 ovarian was found to be 34.9 µM; with OVCAR-8 ovarian it was 19.3 µM; with PC-3 prostate it was 35.4 µM; in the test with SF-268 CNS, 19.6 µM; with SK-MEL-28 melanoma, 39.5 µM; in the test with SK-MEL-5 melanoma, 7.81 µM. Further, the TGI is 28 µM with SNB-19 CNS, 12.1 µM with SNB-75 CNS, 0.855 µM in the test with SR leukemia and 22.4 µM with T-47D breast.

Turning to `COc1ccc(C(SCCO)(c2ccc(OC)cc2)c2ccc(OC)cc2)cc1`, the TGI in the test with CAKI-1 renal was greater than 100 µM; with COLO 205 colon, 25.7 µM; in the test on HOP-62 NSCLC, 44.6 µM; in the test with HOP-92 NSCLC, 28.8 µM; with MALME-3M melanoma it was 34.3 µM; in the test with NCI/ADR-RES ovarian, 49.1 µM. The TGI with OVCAR-4 ovarian was greater than 100 µM; with OVCAR-8 ovarian it was 37.7 µM; in the test on PC-3 prostate, 42.3 µM; in the test with SF-268 CNS, 43.9 µM; in the test with SK-MEL-28 melanoma, 38.6 µM; in the test on SK-MEL-5 melanoma, 24.6 µM. The TGI in the test on SNB-19 CNS was greater than 100 µM; with SNB-75 CNS, 61.1 µM; in the test with SR leukemia it was 26.7 µM; in the test on T-47D breast, 33.7 µM.

For the compound `Cc1cc(S(=O)(=O)Nc2nnc3c(Cl)cc(C(F)(F)F)cn23)c(S)cc1Cl`, the TGI in the test on CAKI-1 renal, with COLO 205 colon, in the test on HOP-62 NSCLC, in the test with HOP-92 NSCLC, in the test with MALME-3M melanoma and in the test with NCI/ADR-RES ovarian was greater than 100 µM in each case. Besides, the TGI in the test with OVCAR-4 ovarian is greater than 100 µM; with OVCAR-8 ovarian it was greater than 100 µM; in the test with PC-3 prostate, greater than 100 µM; with SF-268 CNS, greater than 100 µM; in the test on SK-MEL-28 melanoma, greater than 100 µM; with SK-MEL-5 melanoma, greater than 80.6 µM. Moreover, the TGI in the test with SNB-19 CNS is greater than 91.4 µM; in the test with SNB-75 CNS, 9.12 µM; with SR leukemia it was greater than 100 µM; in the test on T-47D breast, greater than 100 µM.

As to `CCCCCCc1cc2cc(-c3cn4ccccc4n3)c(=O)oc2cc1O`, the TGI in the test with CAKI-1 renal was 13.5 µM; in the test on COLO 205 colon, greater than 100 µM; in the test on HOP-62 NSCLC, 24.4 µM; in the test with HOP-92 NSCLC, 32.6 µM; in the test with MALME-3M melanoma, 4.74 µM; in the test with NCI/ADR-RES ovarian it was 21.4 µM. Moreover, the TGI in the test with OVCAR-4 ovarian was 17.5 µM; in the test on OVCAR-8 ovarian it was 28.5 µM; in the test on PC-3 prostate, 32.7 µM; in the test on SF-268 CNS it was 6.94 µM; in the test on SK-MEL-28 melanoma it was 24.7 µM; in the test with SK-MEL-5 melanoma, 22.1 µM. Further, the TGI turned out to be 26 µM in the test with SNB-19 CNS, 8.81 µM in the test on SNB-75 CNS, 18.8 µM with SR leukemia and 52 µM with T-47D breast.

Source of the values: PubChem BioAssay (NCI).
